# Source: the kinase profiling compilation of Christmann-Franck et al. (2016)
# Tests used:
# Assay in all cases: radiometric filter-binding kinase assay, Kinaseprofiler
# CDK7 CCNH MNAT1 (human) = CDK7 CCNH MNAT1 (human) (UniProt P50613+P51948+P51946); settings: ATP 90 µM
# CDK2 CCNA2 (human) = CDK2 CCNA2 (human) (UniProt P24941+P20248); settings: ATP 45 µM
# CDK2 CCNE1 (human) = CDK2 CCNE1 (human) (UniProt P24941+P24864); settings: ATP 120 µM
# MTOR FKBP1A (human) = MTOR FKBP1A (human) (UniProt P42345+P62942); settings: ATP 45 µM
# [1] = molecular target: PRKAA2 PRKAB1 PRKAG1 (human) (UniProt P54619+P54646+Q9Y478); settings: ATP 45 µM
# CDK3 CCNE1 (human) = CDK3 CCNE1 (human) (UniProt Q00526+P24864); settings: ATP 200 µM
# [2] = system: TEK (human), Q02763 [Q939H/Q940H]; settings: ATP 200 µM
# [3] = system: GSK3A (human), P49840 [S449A]; settings: ATP 10 µM
# [4] = system: TAOK3 (human), Q9H2K8 [N47S]; settings: ATP 15 µM
# [5] = system: AKT1 (human), P31749 [S478G]; settings: ATP 155 µM
# [6] = system: SGK2 (human), Q9HBY8 [S416D]; settings: ATP 15 µM
# SGK2 (human), Q9HBY8 [S416D], sequence (Q9HBY8 whole entry, looked up, stated change not applied): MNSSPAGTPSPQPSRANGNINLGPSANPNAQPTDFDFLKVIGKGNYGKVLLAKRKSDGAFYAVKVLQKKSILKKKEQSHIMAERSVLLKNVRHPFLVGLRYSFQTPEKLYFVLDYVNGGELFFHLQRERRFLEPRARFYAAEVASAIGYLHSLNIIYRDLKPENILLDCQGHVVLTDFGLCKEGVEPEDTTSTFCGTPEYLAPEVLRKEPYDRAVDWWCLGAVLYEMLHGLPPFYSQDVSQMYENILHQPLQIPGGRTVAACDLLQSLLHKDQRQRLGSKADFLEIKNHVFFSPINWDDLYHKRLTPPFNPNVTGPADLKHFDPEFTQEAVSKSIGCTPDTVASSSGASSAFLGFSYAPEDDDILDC
# TEK (human), Q02763 [Q939H/Q940H], sequence (Q02763 whole entry Q939H/Q940H, looked up): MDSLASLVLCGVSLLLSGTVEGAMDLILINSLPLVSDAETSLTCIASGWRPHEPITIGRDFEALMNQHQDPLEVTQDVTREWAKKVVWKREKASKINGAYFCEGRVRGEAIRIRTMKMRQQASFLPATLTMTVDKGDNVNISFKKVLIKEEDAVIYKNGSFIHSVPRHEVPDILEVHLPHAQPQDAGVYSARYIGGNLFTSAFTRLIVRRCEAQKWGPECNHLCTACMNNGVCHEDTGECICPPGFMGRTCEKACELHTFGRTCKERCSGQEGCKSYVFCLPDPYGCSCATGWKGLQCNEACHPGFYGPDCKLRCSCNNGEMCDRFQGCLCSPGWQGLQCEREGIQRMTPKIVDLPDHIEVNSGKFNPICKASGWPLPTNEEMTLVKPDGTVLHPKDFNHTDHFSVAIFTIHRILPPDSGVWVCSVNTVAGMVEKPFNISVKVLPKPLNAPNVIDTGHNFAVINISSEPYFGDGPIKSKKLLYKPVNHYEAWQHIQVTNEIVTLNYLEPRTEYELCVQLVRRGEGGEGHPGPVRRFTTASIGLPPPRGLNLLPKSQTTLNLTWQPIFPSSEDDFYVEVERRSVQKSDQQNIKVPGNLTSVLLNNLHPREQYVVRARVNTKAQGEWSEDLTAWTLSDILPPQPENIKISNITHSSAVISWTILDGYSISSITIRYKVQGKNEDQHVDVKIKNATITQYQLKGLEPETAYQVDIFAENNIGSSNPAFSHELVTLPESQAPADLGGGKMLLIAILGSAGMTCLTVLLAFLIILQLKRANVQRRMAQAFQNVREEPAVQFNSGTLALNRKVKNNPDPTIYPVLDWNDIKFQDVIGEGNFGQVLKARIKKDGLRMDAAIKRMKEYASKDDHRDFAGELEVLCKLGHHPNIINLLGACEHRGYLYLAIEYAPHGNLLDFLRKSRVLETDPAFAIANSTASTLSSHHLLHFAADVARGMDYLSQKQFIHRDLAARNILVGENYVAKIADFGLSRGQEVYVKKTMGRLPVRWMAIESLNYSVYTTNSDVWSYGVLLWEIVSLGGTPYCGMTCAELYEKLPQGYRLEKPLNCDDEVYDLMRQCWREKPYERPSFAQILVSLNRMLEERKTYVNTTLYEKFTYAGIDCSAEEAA
# CDK2 CCNE1 (human), sequence (P24864 whole entry, looked up, other chains not shown): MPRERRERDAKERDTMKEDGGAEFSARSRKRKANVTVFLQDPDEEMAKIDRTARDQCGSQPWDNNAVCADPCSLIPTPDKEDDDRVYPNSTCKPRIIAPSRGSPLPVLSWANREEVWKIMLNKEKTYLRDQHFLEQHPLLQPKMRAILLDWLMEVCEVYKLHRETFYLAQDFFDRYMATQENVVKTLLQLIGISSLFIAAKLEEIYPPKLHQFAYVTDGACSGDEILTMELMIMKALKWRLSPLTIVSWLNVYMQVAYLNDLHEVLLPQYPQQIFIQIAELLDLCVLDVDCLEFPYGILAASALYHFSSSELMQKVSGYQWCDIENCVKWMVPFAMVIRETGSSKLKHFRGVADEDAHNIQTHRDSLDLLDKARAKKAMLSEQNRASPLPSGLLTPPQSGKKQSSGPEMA
# CDK3 CCNE1 (human), sequence (P24864 whole entry, looked up): as the sequence (P24864 whole entry, looked up, other chains not shown) above
# CDK3 CCNE1 (human), sequence (Q00526 whole entry, looked up): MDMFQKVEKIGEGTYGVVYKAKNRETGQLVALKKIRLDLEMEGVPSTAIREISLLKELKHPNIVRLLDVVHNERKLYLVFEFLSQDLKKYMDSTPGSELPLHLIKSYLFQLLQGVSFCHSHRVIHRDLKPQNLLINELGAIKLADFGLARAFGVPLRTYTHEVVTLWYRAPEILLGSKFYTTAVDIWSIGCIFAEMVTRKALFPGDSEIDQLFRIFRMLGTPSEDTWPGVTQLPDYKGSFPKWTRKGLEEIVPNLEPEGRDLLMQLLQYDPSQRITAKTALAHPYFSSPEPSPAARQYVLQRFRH
# CDK7 CCNH MNAT1 (human), sequence (P50613 whole entry, looked up): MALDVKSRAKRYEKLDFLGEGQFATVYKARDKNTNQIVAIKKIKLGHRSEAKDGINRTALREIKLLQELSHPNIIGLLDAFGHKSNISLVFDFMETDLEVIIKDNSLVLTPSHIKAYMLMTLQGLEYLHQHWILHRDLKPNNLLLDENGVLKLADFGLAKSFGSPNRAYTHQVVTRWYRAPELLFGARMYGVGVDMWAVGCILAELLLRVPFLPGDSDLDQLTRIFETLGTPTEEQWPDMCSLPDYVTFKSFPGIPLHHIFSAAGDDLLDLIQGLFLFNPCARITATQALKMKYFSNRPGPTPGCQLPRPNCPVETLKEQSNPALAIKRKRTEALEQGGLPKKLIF
# CDK7 CCNH MNAT1 (human), sequence (P51946 whole entry, looked up): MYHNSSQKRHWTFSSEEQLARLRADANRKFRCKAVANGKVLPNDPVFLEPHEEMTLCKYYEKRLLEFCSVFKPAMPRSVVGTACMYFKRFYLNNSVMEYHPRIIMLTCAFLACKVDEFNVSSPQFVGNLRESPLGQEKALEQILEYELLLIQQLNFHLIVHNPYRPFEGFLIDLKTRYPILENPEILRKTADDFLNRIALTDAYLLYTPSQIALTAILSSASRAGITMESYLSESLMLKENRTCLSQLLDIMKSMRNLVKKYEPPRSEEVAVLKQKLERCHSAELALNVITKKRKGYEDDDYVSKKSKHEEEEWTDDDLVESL
# CDK7 CCNH MNAT1 (human), sequence (P51948 whole entry, looked up): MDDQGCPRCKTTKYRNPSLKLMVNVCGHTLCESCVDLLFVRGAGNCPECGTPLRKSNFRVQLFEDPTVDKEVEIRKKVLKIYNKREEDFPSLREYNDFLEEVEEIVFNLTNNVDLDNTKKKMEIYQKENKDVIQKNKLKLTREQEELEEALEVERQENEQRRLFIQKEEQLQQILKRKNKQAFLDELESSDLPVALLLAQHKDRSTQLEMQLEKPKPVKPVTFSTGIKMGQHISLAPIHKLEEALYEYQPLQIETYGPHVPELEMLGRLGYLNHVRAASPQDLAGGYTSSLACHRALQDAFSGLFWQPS
# TAOK3 (human), Q9H2K8 [N47S], sequence (Q9H2K8 whole entry, looked up, stated change not applied): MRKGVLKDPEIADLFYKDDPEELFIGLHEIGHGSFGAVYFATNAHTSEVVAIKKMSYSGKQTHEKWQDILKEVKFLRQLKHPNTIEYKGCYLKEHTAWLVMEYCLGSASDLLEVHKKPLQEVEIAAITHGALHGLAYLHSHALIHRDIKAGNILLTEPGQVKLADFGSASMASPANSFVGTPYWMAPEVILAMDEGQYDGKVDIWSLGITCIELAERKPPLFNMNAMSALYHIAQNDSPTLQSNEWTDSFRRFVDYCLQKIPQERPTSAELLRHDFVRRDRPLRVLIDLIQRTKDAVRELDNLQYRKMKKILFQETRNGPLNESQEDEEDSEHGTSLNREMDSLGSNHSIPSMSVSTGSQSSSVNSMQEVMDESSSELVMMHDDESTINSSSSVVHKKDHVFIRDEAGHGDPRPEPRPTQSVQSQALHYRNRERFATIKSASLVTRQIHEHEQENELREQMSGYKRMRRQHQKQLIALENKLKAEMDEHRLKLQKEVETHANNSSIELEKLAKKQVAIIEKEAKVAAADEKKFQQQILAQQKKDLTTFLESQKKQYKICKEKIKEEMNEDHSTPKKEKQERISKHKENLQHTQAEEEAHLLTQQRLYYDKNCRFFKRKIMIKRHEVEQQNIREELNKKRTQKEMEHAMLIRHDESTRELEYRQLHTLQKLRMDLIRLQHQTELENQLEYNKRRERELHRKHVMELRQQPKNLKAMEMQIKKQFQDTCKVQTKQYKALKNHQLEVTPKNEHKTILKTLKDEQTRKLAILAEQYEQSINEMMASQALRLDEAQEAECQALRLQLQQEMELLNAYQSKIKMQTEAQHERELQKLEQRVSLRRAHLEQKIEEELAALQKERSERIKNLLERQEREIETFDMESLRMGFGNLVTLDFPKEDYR
# GSK3A (human), P49840 [S449A], sequence (P49840 whole entry, looked up, stated change not applied): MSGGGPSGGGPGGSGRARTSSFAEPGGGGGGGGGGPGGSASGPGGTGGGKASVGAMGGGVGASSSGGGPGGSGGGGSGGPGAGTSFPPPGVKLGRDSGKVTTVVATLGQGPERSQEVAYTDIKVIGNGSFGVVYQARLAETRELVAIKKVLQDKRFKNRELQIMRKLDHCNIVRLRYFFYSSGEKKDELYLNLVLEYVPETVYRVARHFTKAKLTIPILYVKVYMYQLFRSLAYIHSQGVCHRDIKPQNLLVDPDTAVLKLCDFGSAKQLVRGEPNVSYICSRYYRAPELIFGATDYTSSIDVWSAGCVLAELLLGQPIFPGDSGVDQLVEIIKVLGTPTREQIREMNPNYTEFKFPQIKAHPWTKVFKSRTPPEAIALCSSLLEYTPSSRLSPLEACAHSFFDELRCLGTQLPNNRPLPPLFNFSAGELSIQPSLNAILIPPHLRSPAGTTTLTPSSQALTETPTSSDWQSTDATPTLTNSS
# MTOR FKBP1A (human), sequence (P62942 whole entry, looked up, other chains not shown): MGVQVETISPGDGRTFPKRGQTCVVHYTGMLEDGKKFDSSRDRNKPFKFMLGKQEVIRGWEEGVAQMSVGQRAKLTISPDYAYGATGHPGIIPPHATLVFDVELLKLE
smiles,measurement,setting,value
CO[C@H]1CC2CC[C@@H](C)[C@@](O)(O2)C(=O)C(=O)N2CCCC[C@H]2C(=O)OC([C@H](C)C[C@@H]2CC[C@@H](O)[C@H](OC)C2)CC(=O)[C@H](C)/C=C(\C)[C@@H](O)[C@@H](OC)C(=O)[C@H](C)C[C@H](C)/C=C/C=C/C=C/1C (stereo partly drawn),residual activity,CDK7 CCNH MNAT1 (human); compound 1.0 µM,88%
same,residual activity,CDK7 CCNH MNAT1 (human); compound 10.0 µM,94%
same,residual activity,CDK2 CCNA2 (human); compound 1.0 µM,129%
same,residual activity,CDK2 CCNA2 (human); compound 10.0 µM,113%
same,residual activity,CDK2 CCNE1 (human); compound 1.0 µM,105%
same,residual activity,CDK2 CCNE1 (human); compound 10.0 µM,96%
same,residual activity,MTOR FKBP1A (human); compound 1.0 µM,-17%
same,residual activity,MTOR FKBP1A (human); compound 10.0 µM,4%
same,residual activity,[1]; compound 1.0 µM,93%
same,residual activity,[1]; compound 10.0 µM,107%
same,residual activity,CDK3 CCNE1 (human); compound 1.0 µM,90%
same,residual activity,CDK3 CCNE1 (human); compound 10.0 µM,86%
O=C(Nc1cccc(Nc2nccc(Nc3cccc(C(F)(F)F)c3)n2)c1)C1CC1,residual activity,[2]; compound 10.0 µM,17%
O=C1Nc2ccccc2/C1=C1\Nc2ccccc2\C1=N/O,residual activity,[3]; compound 1.0 µM,5%
same,residual activity,[3]; compound 10.0 µM,1%
same,residual activity,[4]; compound 1.0 µM,85%
same,residual activity,[4]; compound 10.0 µM,28%
same,residual activity,[5]; compound 1.0 µM,107%
same,residual activity,[5]; compound 10.0 µM,98%
same,residual activity,[6]; compound 1.0 µM,61%
same,residual activity,[6]; compound 10.0 µM,24%
same,residual activity,[2]; compound 1.0 µM,103%
same,residual activity,[2]; compound 10.0 µM,41%
